Test system: sugarcane
Assay: Sugarcane flowering inhibition field trials, floral induction rated on UFSCar scale
Assay type: in vivo
Description: In order to explore the activity of florpyrauxifen as flowering inhibitor in sugarcane, field studies were carried out. Florpyrauxifen-benzyl was tested at rates from 2 to 20 grams active ingredient per hectare (g ai/ha) and compared to Ethrel® 720 (Bayer), the standard treatment. The flowering inhibition effect was assessed by checking the floral induction in sugarcane through the percentage scale recommended by UFSCar (Federal University of Sao Carlos, Sao Paulo, Brazil).
Four trials were carried out in sugarcane where florpyrauxifen-benzyl (Rinskor®), applied at a rate of 2 to 20 g ai/ha, was compared to ethephon (Ethrel® 720) applied at a rate of 475 g ai/ha. Control plots of untreated sugarcane were also evaluated. Rinskor® and Ethrel® 720 were diluted in water and a single application for each study (backpack sprayer) was performed delivering 50 L of spray solution per ha at the reproductive stage of sugarcane and at a maximum 150 days before harvest. The activity of florpyrauxifen-benzyl as a flowering inhibitor was measured via assessments (Scale of flowering inhibition—see chart 1) performed at 0, 14, 30, 45, 60, 75, 90, 120, 150 days after application, or up to harvest time. The assessments were measured in sugarcane stems, rating the flowering induction according to the UFSCar scale shown below. Significance of treatment effect was evaluated with F-approximate test (α=0.1) and least square means from different treatments were compared with Tukey's test.

SMILES: COc1c(Cl)ccc(-c2nc(C(=O)OCc3ccccc3)c(Cl)c(N)c2F)c1F [Rinskor, florpyrauxifen-benzyl]
- % Referring to Scale (Table 1, 75 DAA, 2 g ai/ha): 13.5%
- Frequency 1/1 (0%) (Table 1, 75 DAA, 2 g ai/ha): 12.5%
- Frequency 2/1 (15%) (Table 1, 75 DAA, 2 g ai/ha): 85.0%
- Frequency 3/1 (30%) (Table 1, 75 DAA, 2 g ai/ha): 2.5%
- Frequency 4/1 (50%) (Table 1, 75 DAA, 2 g ai/ha): 0.0%
- Frequency 4/2 (80%) (Table 1, 75 DAA, 2 g ai/ha): 0.0%
- Frequency 4/3 (90%) (Table 1, 75 DAA, 2 g ai/ha): 0.0%
- Frequency 4/4 (100%) (Table 1, 75 DAA, 2 g ai/ha): 0.0%
- % Referring to Scale (Table 1, 75 DAA, 5 g ai/ha): 14.6%
- Frequency 1/1 (0%) (Table 1, 75 DAA, 5 g ai/ha): 7.5%
- Frequency 2/1 (15%) (Table 1, 75 DAA, 5 g ai/ha): 87.5%
- Frequency 3/1 (30%) (Table 1, 75 DAA, 5 g ai/ha): 5.0%
- Frequency 4/1 (50%) (Table 1, 75 DAA, 5 g ai/ha): 0.0%
- Frequency 4/2 (80%) (Table 1, 75 DAA, 5 g ai/ha): 0.0%
- Frequency 4/3 (90%) (Table 1, 75 DAA, 5 g ai/ha): 0.0%
- Frequency 4/4 (100%) (Table 1, 75 DAA, 5 g ai/ha): 0.0%
- % Referring to Scale (Table 1, 75 DAA, 10 g ai/ha): 11.3%
- Frequency 1/1 (0%) (Table 1, 75 DAA, 10 g ai/ha): 25.0%
- Frequency 2/1 (15%) (Table 1, 75 DAA, 10 g ai/ha): 75.0%
- Frequency 3/1 (30%) (Table 1, 75 DAA, 10 g ai/ha): 0.0%
- Frequency 4/1 (50%) (Table 1, 75 DAA, 10 g ai/ha): 0.0%
- Frequency 4/2 (80%) (Table 1, 75 DAA, 10 g ai/ha): 0.0%
- Frequency 4/3 (90%) (Table 1, 75 DAA, 10 g ai/ha): 0.0%
- Frequency 4/4 (100%) (Table 1, 75 DAA, 10 g ai/ha): 0.0%
- % Referring to Scale (Table 1, 75 DAA, 15 g ai/ha): 10.1%
- Frequency 1/1 (0%) (Table 1, 75 DAA, 15 g ai/ha): 32.5%
- Frequency 2/1 (15%) (Table 1, 75 DAA, 15 g ai/ha): 67.5%
- Frequency 3/1 (30%) (Table 1, 75 DAA, 15 g ai/ha): 0.0%
- Frequency 4/1 (50%) (Table 1, 75 DAA, 15 g ai/ha): 0.0%
- Frequency 4/2 (80%) (Table 1, 75 DAA, 15 g ai/ha): 0.0%
- Frequency 4/3 (90%) (Table 1, 75 DAA, 15 g ai/ha): 0.0%
- Frequency 4/4 (100%) (Table 1, 75 DAA, 15 g ai/ha): 0.0%
- % Referring to Scale (Table 1, 75 DAA, 20 g ai/ha): 10.5%
- Frequency 1/1 (0%) (Table 1, 75 DAA, 20 g ai/ha): 30.0%
- Frequency 2/1 (15%) (Table 1, 75 DAA, 20 g ai/ha): 70.0%
- Frequency 3/1 (30%) (Table 1, 75 DAA, 20 g ai/ha): 0.0%
- Frequency 4/1 (50%) (Table 1, 75 DAA, 20 g ai/ha): 0.0%
- Frequency 4/2 (80%) (Table 1, 75 DAA, 20 g ai/ha): 0.0%
- Frequency 4/3 (90%) (Table 1, 75 DAA, 20 g ai/ha): 0.0%
- Frequency 4/4 (100%) (Table 1, 75 DAA, 20 g ai/ha): 0.0%
- % Referring to Scale (Table 1, 90 DAA, 2 g ai/ha): 13.1%
- Frequency 1/1 (0%) (Table 1, 90 DAA, 2 g ai/ha): 12.5%
- Frequency 2/1 (15%) (Table 1, 90 DAA, 2 g ai/ha): 87.5%
- Frequency 3/1 (30%) (Table 1, 90 DAA, 2 g ai/ha): 0.0%
- Frequency 4/1 (50%) (Table 1, 90 DAA, 2 g ai/ha): 0.0%
- Frequency 4/2 (80%) (Table 1, 90 DAA, 2 g ai/ha): 0.0%
- Frequency 4/3 (90%) (Table 1, 90 DAA, 2 g ai/ha): 0.0%
- Frequency 4/4 (100%) (Table 1, 90 DAA, 2 g ai/ha): 0.0%
- % Referring to Scale (Table 1, 90 DAA, 5 g ai/ha): 11.3%
- Frequency 1/1 (0%) (Table 1, 90 DAA, 5 g ai/ha): 25.0%
- Frequency 2/1 (15%) (Table 1, 90 DAA, 5 g ai/ha): 75.0%
- Frequency 3/1 (30%) (Table 1, 90 DAA, 5 g ai/ha): 0.0%
- Frequency 4/1 (50%) (Table 1, 90 DAA, 5 g ai/ha): 0.0%
- Frequency 4/2 (80%) (Table 1, 90 DAA, 5 g ai/ha): 0.0%
- Frequency 4/3 (90%) (Table 1, 90 DAA, 5 g ai/ha): 0.0%
- Frequency 4/4 (100%) (Table 1, 90 DAA, 5 g ai/ha): 0.0%

From patent publication US20240138411A1, “METHOD OF […] OF SUGARCANE” (CORTEVA AGRISCIENCE LLC, priority 2021, published 2024)
